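These data come from cells grown in 96-well plates and exposed to compound for 48 hours at five concentrations. GI50 = concentration required for 50% inhibition of growth. At the TGI there is no net growth.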
What was measured:
Experiment in all cases: growth of human tumour cells (NCI), 48 h
[1] = test system: OVCAR-3 ovarian
[2] = test system: CAKI-1 renal
[3] = test system: LOX IMVI melanoma
[4] = test system: HOP-92 NSCLC
[5] = test system: ACHN renal
[6] = test system: SK-MEL-28 melanoma
[7] = test system: SK-OV-3 ovarian
[8] = test system: SNB-19 CNS
[9] = test system: MCF7 breast
[10] = test system: T-47D breast

SMILES | TGI [1] [µM] | TGI [2] [µM] | TGI [3] [µM] | TGI [4] [µM] | TGI [5] [µM] | TGI [6] [µM] | TGI [7] [µM] | TGI [8] [µM] | GI50 [1] [µM] | GI50 [2] [µM] | GI50 [9] [µM] | TGI [9] [µM] | GI50 [3] [µM] | GI50 [5] [µM] | GI50 [6] [µM] | GI50 [7] [µM] | GI50 [10] [µM] | TGI [10] [µM] | GI50 [8] [µM] | GI50 [4] [µM]
O=C(CCC(=O)Nc1cccc(Cl)c1)CC(=O)c1ccc(F)cc1 | > 100 | > 100 | > 100 | > 100 | > 100 | > 100 | > 100 | > 100 | – | – | – | – | – | – | – | – | – | – | – | –
O=c1c2ccccc2c(Br)c(Br)c2ccccc12 | 12 | 4.39 | 5.77 | – | 21.9 | > 100 | > 100 | > 100 | 3.37 | 1.78 | 5.6 | 46.1 | 2.22 | 7.46 | 24.9 | 38.3 | 4.43 | 32.3 | 45.4 | –
COc1cc(-c2nc3sccn3c2-c2ccnc(NCCNS(=O)(=O)c3ccc(Cl)cc3)n2)ccc1F | > 100 | > 100 | > 100 | – | > 100 | > 100 | > 100 | > 100 | 4.94 | 4.89 | 3.24 | > 100 | 3.39 | 2.77 | 4.37 | 6.82 | 1.44 | 8.46 | 74 | –
CC(=O)N1c2ccccc2C2=CC3C4C(=O)N(c5ccccc5)C(=O)C4C21C1C(=O)N(c2ccccc2)C(=O)C31 (configuration not stated) | – | > 100 | > 100 | > 100 | > 100 | > 100 | > 100 | > 100 | – | – | – | – | – | – | – | – | – | – | – | –
CC(=O)Oc1cc(C)c2c(c1OC(C)=O)CC1(O2)[C@@H](C)CCC2[C@@]3(C)CC[C@H](OC(C)=O)C(C)(C)C3CC[C@]21C (some centres not stated) | 8.41 | 4.3 | 14 | 8.01 | 7.63 | 15.9 | 25.5 | 29.8 | – | – | – | – | – | – | – | – | – | – | – | –
N=C(N)c1ccc(OCCOCCOc2ccc(C(=N)N)cc2)cc1 | > 100 | > 100 | > 100 | > 100 | > 100 | > 100 | – | > 100 | > 100 | > 100 | 89.1 | > 100 | > 100 | > 100 | 77 | – | 82.5 | > 100 | 80.6 | 74.6
O=S(=O)(N/N=C/c1ccc(Cl)c(Cl)c1)c1ccccc1 | > 100 | > 100 | > 100 | 48.6 | > 100 | > 100 | > 100 | – | – | – | – | – | – | – | – | – | – | – | – | –
CCN1/C(=C/C=C/c2n(-c3ccccc3)c3ccc(-c4nc5ccccc5s4)cc3[n+]2CC)N(c2ccccc2)c2ccc(-c3nc4ccccc4s3)cc21 | 10.3 | – | > 50 | – | > 50 | 5.82 | – | > 50 | 1.01 | – | 0.426 | > 50 | 1.22 | 0.622 | 0.488 | – | 0.746 | > 50 | 0.369 | –
Nc1nc(N)c(Cn2ccnc2)c(=O)[nH]1 | > 100 | > 100 | > 100 | > 100 | > 100 | – | > 100 | > 100 | – | – | – | > 100 | – | – | – | – | – | > 100 | – | –
